# Measured values from patent US8192962B2, “Processes for detecting toxic substances” (Daikin Industries, Ltd., priority 2001, dated 2012).
# Test system: Metabolism protein genes
# Assay: DNA chip mRNA expression in yeast, metabolism protein genes (Table 7)
# Assay type: cell-based, Saccharomyces cerevisiae S288C
# Procedure, shortened: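 Measured as treated-to-untreated fluorescence ratio on a full-genome yeast DNA chip. Cells (S288C, YPD, 25° C.) were exposed in log phase for two hours to one chemical, dosed to curb growth without killing.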
smiles,measurement,setting,value
"O=[N+]([O-])c1cc[n+]([O-])c2ccccc12 [(5), 4-nitroquinolin-N-oxide]",The level of expressed mRNA in the presence of chemical substance/The level of expressed mRNA in the absence of chemical substance,yeast gene YAL012W,0.6
same,The level of expressed mRNA in the presence of chemical substance/The level of expressed mRNA in the absence of chemical substance,yeast gene YAL038W,1.4
same,The level of expressed mRNA in the presence of chemical substance/The level of expressed mRNA in the absence of chemical substance,yeast gene YAR071W,1.6
same,level of expressed mRNA in the presence/in the absence of chemical substance,yeast gene YBR003W,0.7
same,level of expressed mRNA in the presence/in the absence of chemical substance,yeast gene YBR011C,0.9
same,level of expressed mRNA in the presence/in the absence of chemical substance,yeast gene YBR020W,1.0
same,The level of expressed mRNA in the presence of chemical substance/The level of expressed mRNA in the absence of chemical substance,yeast gene YBR023C,0.8
same,The level of expressed mRNA in the presence of chemical substance/The level of expressed mRNA in the absence of chemical substance,yeast gene YBR029C,1.4
same,The level of expressed mRNA in the presence of chemical substance/The level of expressed mRNA in the absence of chemical substance,yeast gene YBR183W,0.9
same,The level of expressed mRNA in the presence of chemical substance/The level of expressed mRNA in the absence of chemical substance,yeast gene YBR222C,0.7
same,The level of expressed mRNA in the presence of chemical substance/The level of expressed mRNA in the absence of chemical substance,yeast gene YBR256C,1.6
same,The level of expressed mRNA in the presence of chemical substance/The level of expressed mRNA in the absence of chemical substance,yeast gene YBR299W,1.6
same,The level of expressed mRNA in the presence of chemical substance/The level of expressed mRNA in the absence of chemical substance,yeast gene YCL009C,0.7
same,The level of expressed mRNA in the presence of chemical substance/The level of expressed mRNA in the absence of chemical substance,yeast gene YCL064C,1.4
same,level of expressed mRNA in the presence/in the absence of chemical substance,yeast gene YCR010C,1.7
same,level of expressed mRNA in the presence/in the absence of chemical substance,yeast gene YCR034W,0.9
same,The level of expressed mRNA in the presence of chemical substance/The level of expressed mRNA in the absence of chemical substance,yeast gene YCR048W,0.9
same,The level of expressed mRNA in the presence of chemical substance/The level of expressed mRNA in the absence of chemical substance,yeast gene YCR098C,1.4
same,The level of expressed mRNA in the presence of chemical substance/The level of expressed mRNA in the absence of chemical substance,yeast gene YDR019C,0.9
same,level of expressed mRNA in the presence/in the absence of chemical substance,yeast gene YDR050C,0.9
same,level of expressed mRNA in the presence/in the absence of chemical substance,yeast gene YDR073W,1.2
same,level of expressed mRNA in the presence/in the absence of chemical substance,yeast gene YDR123C,1.6
same,level of expressed mRNA in the presence/in the absence of chemical substance,yeast gene YDR178W,0.9
same,level of expressed mRNA in the presence/in the absence of chemical substance,yeast gene YDR277C,0.8
same,level of expressed mRNA in the presence/in the absence of chemical substance,yeast gene YDR284C,0.8
same,level of expressed mRNA in the presence/in the absence of chemical substance,yeast gene YDR345C,1.3
same,The level of expressed mRNA in the presence of chemical substance/The level of expressed mRNA in the absence of chemical substance,yeast gene YDR380W,1.1
same,level of expressed mRNA in the presence/in the absence of chemical substance,yeast gene YDR400W,1.0
same,level of expressed mRNA in the presence/in the absence of chemical substance,yeast gene YDR408C,0.9
same,level of expressed mRNA in the presence/in the absence of chemical substance,yeast gene YDR483W,0.7
same,The level of expressed mRNA in the presence of chemical substance/The level of expressed mRNA in the absence of chemical substance,yeast gene YDR497C,0.7
same,The level of expressed mRNA in the presence of chemical substance/The level of expressed mRNA in the absence of chemical substance,yeast gene YDR502C,1.5
same,The level of expressed mRNA in the presence of chemical substance/The level of expressed mRNA in the absence of chemical substance,yeast gene YDR516C,1.3
same,level of expressed mRNA in the presence/in the absence of chemical substance,yeast gene YEL063C,1.2
same,level of expressed mRNA in the presence/in the absence of chemical substance,yeast gene YER015W,1.3
same,The level of expressed mRNA in the presence of chemical substance/The level of expressed mRNA in the absence of chemical substance,yeast gene YER026C,1.2
same,The level of expressed mRNA in the presence of chemical substance/The level of expressed mRNA in the absence of chemical substance,yeast gene YER053C,0.6
same,The level of expressed mRNA in the presence of chemical substance/The level of expressed mRNA in the absence of chemical substance,yeast gene YER069W,1.5
same,level of expressed mRNA in the presence/in the absence of chemical substance,yeast gene YER081W,1.1
same,The level of expressed mRNA in the presence of chemical substance/The level of expressed mRNA in the absence of chemical substance,yeast gene YER096W,1.3
same,level of expressed mRNA in the presence/in the absence of chemical substance,yeast gene YER120W,0.8
same,The level of expressed mRNA in the presence of chemical substance/The level of expressed mRNA in the absence of chemical substance,yeast gene YER178W,0.7
same,level of expressed mRNA in the presence/in the absence of chemical substance,yeast gene YFL011W,1.3
same,The level of expressed mRNA in the presence of chemical substance/The level of expressed mRNA in the absence of chemical substance,yeast gene YFL014W,1.0
same,The level of expressed mRNA in the presence of chemical substance/The level of expressed mRNA in the absence of chemical substance,yeast gene YFL030W,1.1
same,The level of expressed mRNA in the presence of chemical substance/The level of expressed mRNA in the absence of chemical substance,yeast gene YFL031W,1.0
same,The level of expressed mRNA in the presence of chemical substance/The level of expressed mRNA in the absence of chemical substance,yeast gene YFL056C,0.9
same,The level of expressed mRNA in the presence of chemical substance/The level of expressed mRNA in the absence of chemical substance,yeast gene YFL057C,0.9
same,The level of expressed mRNA in the presence of chemical substance/The level of expressed mRNA in the absence of chemical substance,yeast gene YFR047C,1.2
same,level of expressed mRNA in the presence/in the absence of chemical substance,yeast gene YGL012W,1.5
same,The level of expressed mRNA in the presence of chemical substance/The level of expressed mRNA in the absence of chemical substance,yeast gene YGL022W,1.0
same,level of expressed mRNA in the presence/in the absence of chemical substance,yeast gene YGL115W,1.2
same,The level of expressed mRNA in the presence of chemical substance/The level of expressed mRNA in the absence of chemical substance,yeast gene YGL126W,1.1
same,level of expressed mRNA in the presence/in the absence of chemical substance,yeast gene YGL205W,1.1
same,The level of expressed mRNA in the presence of chemical substance/The level of expressed mRNA in the absence of chemical substance,yeast gene YGL209W,0.7
same,The level of expressed mRNA in the presence of chemical substance/The level of expressed mRNA in the absence of chemical substance,yeast gene YGL248W,1.3
same,The level of expressed mRNA in the presence of chemical substance/The level of expressed mRNA in the absence of chemical substance,yeast gene YGR037C,1.0
same,The level of expressed mRNA in the presence of chemical substance/The level of expressed mRNA in the absence of chemical substance,yeast gene YGR055W,1.3
same,level of expressed mRNA in the presence/in the absence of chemical substance,yeast gene YGR096W,1.2
same,level of expressed mRNA in the presence/in the absence of chemical substance,yeast gene YGR191W,0.8
same,The level of expressed mRNA in the presence of chemical substance/The level of expressed mRNA in the absence of chemical substance,yeast gene YGR194C,0.8
same,level of expressed mRNA in the presence/in the absence of chemical substance,yeast gene YGR204W,0.6
same,The level of expressed mRNA in the presence of chemical substance/The level of expressed mRNA in the absence of chemical substance,yeast gene YGR256W,0.9
same,The level of expressed mRNA in the presence of chemical substance/The level of expressed mRNA in the absence of chemical substance,yeast gene YGR282C,1.0
same,level of expressed mRNA in the presence/in the absence of chemical substance,yeast gene YGR288W,0.8
same,level of expressed mRNA in the presence/in the absence of chemical substance,yeast gene YHR025W,0.9
same,The level of expressed mRNA in the presence of chemical substance/The level of expressed mRNA in the absence of chemical substance,yeast gene YHR111W,1.5
same,The level of expressed mRNA in the presence of chemical substance/The level of expressed mRNA in the absence of chemical substance,yeast gene YHR137W,1.0
same,The level of expressed mRNA in the presence of chemical substance/The level of expressed mRNA in the absence of chemical substance,yeast gene YHR174W,1.3
same,The level of expressed mRNA in the presence of chemical substance/The level of expressed mRNA in the absence of chemical substance,yeast gene YHR176W,1.0
same,level of expressed mRNA in the presence/in the absence of chemical substance,yeast gene YHR210C,1.8
same,level of expressed mRNA in the presence/in the absence of chemical substance,yeast gene YIL006W,0.8
same,The level of expressed mRNA in the presence of chemical substance/The level of expressed mRNA in the absence of chemical substance,yeast gene YIL045W,1.3
same,The level of expressed mRNA in the presence of chemical substance/The level of expressed mRNA in the absence of chemical substance,yeast gene YIL107C,0.8
same,The level of expressed mRNA in the presence of chemical substance/The level of expressed mRNA in the absence of chemical substance,yeast gene YIL154C,0.9
same,The level of expressed mRNA in the presence of chemical substance/The level of expressed mRNA in the absence of chemical substance,yeast gene YIL155C,1.3
same,The level of expressed mRNA in the presence of chemical substance/The level of expressed mRNA in the absence of chemical substance,yeast gene YIL167W,1.0
same,The level of expressed mRNA in the presence of chemical substance/The level of expressed mRNA in the absence of chemical substance,yeast gene YIR031C,1.6
same,The level of expressed mRNA in the presence of chemical substance/The level of expressed mRNA in the absence of chemical substance,yeast gene YIR034C,1.1
same,The level of expressed mRNA in the presence of chemical substance/The level of expressed mRNA in the absence of chemical substance,yeast gene YIR036C,0.9
same,The level of expressed mRNA in the presence of chemical substance/The level of expressed mRNA in the absence of chemical substance,yeast gene YJL031C,1.7
same,The level of expressed mRNA in the presence of chemical substance/The level of expressed mRNA in the absence of chemical substance,yeast gene YJL068C,0.7
same,The level of expressed mRNA in the presence of chemical substance/The level of expressed mRNA in the absence of chemical substance,yeast gene YJL088W,0.9
same,The level of expressed mRNA in the presence of chemical substance/The level of expressed mRNA in the absence of chemical substance,yeast gene YJL099W,1.9
same,level of expressed mRNA in the presence/in the absence of chemical substance,yeast gene YJL121C,1.0
same,level of expressed mRNA in the presence/in the absence of chemical substance,yeast gene YJL167W,0.7
same,The level of expressed mRNA in the presence of chemical substance/The level of expressed mRNA in the absence of chemical substance,yeast gene YJL172W,0.9
same,level of expressed mRNA in the presence/in the absence of chemical substance,yeast gene YJL216C,0.8
same,The level of expressed mRNA in the presence of chemical substance/The level of expressed mRNA in the absence of chemical substance,yeast gene YJL219W,1.2
same,level of expressed mRNA in the presence/in the absence of chemical substance,yeast gene YJR077C,0.9
same,The level of expressed mRNA in the presence of chemical substance/The level of expressed mRNA in the absence of chemical substance,yeast gene YJR137C,0.6
same,level of expressed mRNA in the presence/in the absence of chemical substance,yeast gene YJR143C,1.6
